Data as given in patent publication US20110158947A1, “SULFONYLUREA RECEPTOR AND MEANS FOR TREATING ISCHAEMIA” (priority 2008, published 2011).

What was measured:
SUR2A mRNA = assay: Real time RT-PCR of myocardial SUR2A mRNA in mice on nicotinamide-rich diet; assay type: in vivo; conditions: n=6
From the text: Real time RT-PCR Total RNA was extracted from cardiac ventricular tissue of transgenic and wild type mice using TRIZOL reagent (Invitrogen, Paisley, UK) according to the manufacturer's recommendations. Extracted RNA was further purified with RNeasy Mini Kit (Qiagen, Crawley, UK) according to the manufacturer's instruction. The specific primers for mouse SUR2A, Kir6.2, Kir6.1, SUR1 and SUR2B (designed to amplify SUR2B and natively present SUR2A) were designed as follows: For SUR2A: sense, […], antisense, […]; for Kir6.2: sense; […], antisense, […]; for Kir6.1: sense, 5′-[…]-3, antisense, 5-[…]-3′; for SUR1: sense, 5′-GGAAGGACTCACCACCATC-3′, antisense, 5′-GAGACCATCAAGGCGTAGG-3′; for SUR2B: sense, 5′-GATGCCACTGTCACCGAAG-3′, antisense, 5-[…]-3′. The real time RT-PCR was performed as described in ref. 14.
Nicotinamide was administered orally, i.e. as a dietary supplement. Mice were fed with nicotinamide-rich diet (ad libidum; 500 mg of nicotinamide per 1 kg of food) for 3 weeks. Estimated daily intake was 2.5 mg. For some in vitro experiments, cardiac cells were incubated for 24 hours in a DMEM medium containing 10% fetal calf serum, 2 mM glutamine and 20 mM NAD or NADH.
All experiments have been done on male mice. […] After the test, mice were sacrificed, hearts harvested and SUR2A mRNA levels measured. […]

male mice = assay: Treadmill endurance test; assay type: in vivo; conditions: one week, n=6
Protocol: All experiments have been done on male mice. Mice were on RM1 ad libidum diet (SDS, UK) and RM1 diet supplemented with nicotinamide (0.1, 0.5, 2.5, 12.5 g of nicotinamide per kg of diet which would lead to daily intake of 0.04 mg of nicotinamide in control diet and 0.4 mg, 2 mg, 10 mg and 50 mg in nicotinamide-rich diets). All mice were of similar age and weight. Mice were on these diets for a week. To assess physical endurance in these mice, we have used treadmill endurance test. A six lane treadmill (Columbus Instruments, Columbus, Ohio) was used to perform treadmill tests. The exercise-induced stress protocol consisted of a step-wise increase in velocity at constant incline. Before the experiments, animals were acclimatized to the treadmill for 30 minutes; 10 minutes at 0 m/min, 10 minutes at 3 m/min followed by 10 minutes at 6 m/min two days prior to the treadmill endurance test. The treadmill endurance test consisted of a step-wise increase in velocity over time at constant incline. The animal was made to run at 3, 5, 8 (all at m/min) for 3 min intervals followed by 9, 10, 11, 12, 13, 14, 15 (all at m/min) for 5 min intervals and then at a constant velocity of 16 m/min until exhaustion. After the test, mice were sacrificed, hearts harvested and SUR2A mRNA levels measured. More specifically, total RNA was extracted from cardiac ventricular tissue of transgenic and wild type mice using TRIZOL reagent (Invitrogen, Paisley, UK) according to the manufacturer's recommendations. Extracted RNA was further purified with RNeasy Mini Kit (Qiagen, Crawley, UK) according to the manufacturer's instruction. The for mouse SUR2A were designed as follows: sense, […], antisense, […]. The reverse transcription (RT) reaction was carried out with ImProm-II Reverse Transcriptase (Promega, Southampton, UK). […] Efficiency is evaluated by the slope of the regression curve obtained with several dilutions of the cDNA template. […] Threshold cycle values, PCR efficiency (examined by serially diluting the template cDNA and performing PCR under these conditions) and PCR specificity (by constructing the melting curve) were determined by the same software. […] The relative expression ratio(R) of a gene encoding KATP channel subunit is calculated using equation R=(EK)^ΔCPk^(CD-ND)/(ER)^ΔCPR^(CD-ND) where EK is the real time PCR efficiency of SUR2A gene transcript, ER is the real time PCR efficiency of GAPDH gene, ΔCPK is the crossing point deviation of control diet-nicotinamide diet of SUR2A gene transcript while ΔCPR is the crossing point deviation of control diet-nicotinamide diet of GAPDH gene transcript.

cardiomyocytes = assay: Intracellular Ca2+ (Fluo-3) in cardiomyocytes exposed to isoprenaline; assay type: cell-based, mouse; conditions: 100 μM, n=6
From the text: Ventricular cardiomyocytes were dissociated from the mouse using an established enzymatic procedure. Mitochondrial membrane potential was monitored in cells exposed to hypoxia as described. To measure the mitochondrial membrane potential cells were loaded with JC-1 according to the manufacturer's instructions (Invitrogen, Paisley, UK) and continously monitored with LSM-510. Fluorescence was imaged at 488 nm excitation wavelength and emission was captured at 530 and 590 nm for green and red channels respectively; the JC-1 ratio refers always to green/red ratio. The moment of cell death was defined as the point when the cell has become rounded (ratio of diameters<2). In addition to mitochondrial membrane potential, intracellular Ca^2+ levels were also measured using Fluo-3, Ca^2+-sensitive dye [described in 11-13].

H9C2 cells = assay: Cell survival assay (Multitox-Fluor) under DNP metabolic stress; assay type: cell-based, rat; conditions: control (GFP-infected) H9C2 cells, DNP 10 mM, n=14
Protocol: H9C2 cells Rat embryonic heart H9c2 cells (ECACC, Salisbury, UK) were cultured in a tissue flask (at 5% CO2) containing Dulbecco's modified Eagle's medium supplemented with 10% fetal calf serum and 2 mM glutamine. For electrophysiological experiments, the cells were plated on a 35×10-mm culture dish containing 25-mm glass cover-slips. The cells were cultured in incubators (Galaxy, oxygen control model, RS Biotech, Irvine, UK). […] The recombinant SUR2A adenovirus (AV-SUR2A) was generated using the AdEasy XL Adenoviral Vector System (Stratagene). SUR2A gene was cloned into a shuttle vector pShuttle-CMV by PCR using the following primers containing restrict enzyme sites Bgl II/Xho I, sense, 5′-GCAGATCT GGCAGGCTGTTGGTAGCTCA-3′, antisense, 5′-GCCTCGAG CTACTTGTTGGTCATCACCA-3. […] The virus titer is determined using QuickTiter Adenovirus Titer Immunoassay Kit (Cell Biolabs, Inc) according to manufacturer's instructions. […]
The survival of H9C2 cells were assayed using Multitox-Fluor Multiplex Cytotoxicity Assay (Promega). […] Following 30 min-long incubation at 37° C., plates were measured using 1420 Multibabel Counter (Victor) plate reader, with excitation at 370 nm and emissions of 480 nm. The percentage of live cells was calculated based on the intensity of fluorescence according to the manufacturer instructions.

## NC(=O)c1cccnc1 [nicotinamide]
SUR2A mRNA; 0.1 g/kg nicotinamide-rich diet, one week, after treadmill test
  threshold cycle, SUR2A mRNA in the heart: 21.8±0.8
SUR2A mRNA; nicotinamide-rich diet, 500 mg per 1 kg of food, 3 weeks, lower cycle = more mRNA
  threshold cycle, SUR2A mRNA in hearts: 23.57±1.47
Male mice; 0.1 g/kg nicotinamide in diet
  time on treadmill: 144.0 ± 14.9 min
Male mice; 0.5 g/kg nicotinamide in diet
  time on treadmill: 95.3 ± 18.1 min
Male mice; 2.5 g/kg nicotinamide in diet
  time on treadmill: 103.7 ± 20.4 min
Male mice; 12.5 g/kg nicotinamide in diet
  time on treadmill: 88.2 ± 12.5 min

## CC(C)NCC(O)c1ccc(O)c(O)c1 (stereo not drawn) [isoprenaline]
cardiomyocytes; cardiomyocytes from transgenic SUR2A mice
  relative fluo-3 fluorescence (calcium levels): 78±16.6
cardiomyocytes; cardiomyocytes from wild type mice
  relative fluo-3 fluorescence (calcium levels): 127.2±13.8

## O=[N+]([O-])c1ccc(O)c([N+](=O)[O-])c1 [DNP]
H9C2 cells
  cells that survived DNP: 43.3±1.8%
